Patent US10722484B2, “Methods of cancer treatment” (K-Gen, Inc., priority 2016, dated 2020)
Where two headings read alike, the source gives them in different places.

What was measured:
Type in all cases: cell-based
A549 = experiment: Proliferation assay (CellTiter Glo); conditions: 96 hours; for Top Inhibition %: % of top inhibition
Protocol: (§1) The dose range for most compounds was 4.6 nM-30 μM. The dose ranges for some compounds were adjusted downward to 0.46 nM-3 μM or 0.08 nM-0.5 μM or 0.03 nM-0.2 μM. […] The results are shown in Tables 3-6 for pancreatic cancer, lung cancer, colon/gastric cancer, and leukemia.

AsPC-1 = experiment: Proliferation assay (CellTiter Glo); conditions: 96 hours; for Top Inhibition %: % of top inhibition
Protocol: as §1

CCRF-CEM = experiment: Proliferation assay (CellTiter Glo); conditions: 96 hours; for Top Inhibition %: % of top inhibition
Protocol: as §1

Capan-1 = experiment: Proliferation assay (CellTiter Glo); conditions: 96 hours; for Top Inhibition %: % of top inhibition
Protocol: as §1

Pan2.03 = experiment: Proliferation assay (CellTiter Glo); conditions: 96 hours; for Top Inhibition %: % of top inhibition
Protocol: as §1

Pan2.13 = experiment: Proliferation assay (CellTiter Glo); conditions: 96 hours; for Top Inhibition %: % of top inhibition
Protocol: as §1

SW620 = experiment: Proliferation assay (CellTiter Glo); conditions: 96 hours; for Top Inhibition %: % of top inhibition
Protocol: as §1

BxPC-3 = experiment: Proliferation assay (CellTiter Glo); conditions: BxPC-3 (RAS WT); 96 hours
Colo205 = experiment: Proliferation assay (CellTiter Glo); conditions: Colo205 (RAS WT); 96 hours
H1915 = experiment: Proliferation assay (CellTiter Glo); conditions: H1915 (RAS WT); 96 hours
H838 = experiment: Proliferation assay (CellTiter Glo); conditions: H838 (RAS WT); 96 hours
HT29 = experiment: Proliferation assay (CellTiter Glo); conditions: HT29 (RAS WT); 96 hours
RPMI8226 = experiment: Proliferation assay (CellTiter Glo); conditions: RPM18226; 96 hours
SW900 = experiment: Proliferation assay (CellTiter Glo); conditions: SW900 (K-RAS: G12V); 96 hours
[1] = test system: leukemia inhibitory factor (LIF); experiment: Western blot analysis of PKC signaling pathway elements in A549 cells; conditions: for protein levels of the leukemia inhibitory factor (LIF): Western blot, concentrations of Table 8 (K101A 0.1, 0.5, […]; K101E […]; K102 0.1, 0.5 μM; K103 0.01 μM; Ref1 1 μM; Ref2 0.01 μM)
Protocol: (§2) Cancer cells (2-8 million cells) were seeded in 10 cm dishes and grown overnight. For A549 lung cancer cell line, about 3 million cells were seeded. Cells were then treated with different drugs at concentrations described in Table 8 for a period of time up to 48 hours. Cells were lysed in 0.3-0.5 mL of RIPA buffer (Sigma) supplemented with protease inhibitors (Roche) and phosphatase inhibitors (Sigma). Lysates were assayed for protein concentration using BCA kit (Pierce). Normalized amount of lysates (20-30 μg protein/lane) were run on 4-12% NuPage gel (Life Technologies) and the proteins were transferred to the PVDF or nitrocellulose membrane using iBlot® Transfer Stack (Life Technologies). The membranes were probed with primary antibodies shown in Table 9 at 4° C. overnight after blocking with 1×TBST containing 5% non-fat milk. Antibodies from other vendors could also be used in Western blot analysis. After washing 5 times with 1×TBS containing 0.1% Tween20, the membranes were probed with 2nd antibodies Anti-mouse IgG Dylight 800 conjugate or Anti-rabbit IgG DyLight 680 conjugate (1:10000; Cell signaling or similar IR 2nd antibodies from different vendors) at room temperature for one hour. After washing 5 times, the membranes were scanned using Odyssey® Imaging System (Licor Biosciences).

A549 cells = experiment: Soft agar colony formation assay; conditions: 7-10 days, 9-point 3-fold dilution series
Protocol: To prepare a base agar layer (0.6%), melted 1.2% agar solution was mixed 1:1 (v/v) with 2×DMEM/20% FBS medium in a tube by inverting several times, and 50 μL of the mixture was immediately transferred to a well in a 96-well flat-bottom microplate. The plate was placed at 4° C. for 30 minutes to allow the base agar layer to solidify. Then, the cell agar layer (agar 0.4%) was prepared by transferring 75 μL of the cell and agar mixture containing 1:1:1 (v/v/v) of 1.2% agar solution, 2×DMEM/20% FBS and cell suspension (0.4-4×10E5/mL) to each well of the plates so that each well contained 1000-10000 cells per well. The plates were placed at 4° C. for 15 minutes and then 75 μL of media was added to each well. After incubating the plates overnight in a CO2 incubator, 50 μL of media with or without 5× final concentrations of compounds were added to each well. Each compound was tested in 9-point 3-fold dilution series. The plates were incubated for 7-10 days at 37° C. At the end of incubation period, 28 μL of Calcein AM solution (5 μM) was added to the center of each well. The plates were incubated at 37° C. for 45 minutes before scanning on Acumen (TTP Labtech). Each compound was tested in triplicates. Data was analyzed and compound EC50s were calculated using GraphPad Prism 5.

phospho-PKC (pan) = experiment: Western blot analysis of PKC signaling pathway elements in A549 cells
Protocol: as §2

[2] = Homo sapiens, A549 (K-RAS: G12S), absolute EC50, read-out: Ab EC50
[3] = Homo sapiens, A549, relative EC50, read-out: Re EC50
[4] = Homo sapiens, ASPC1, AsPC-1 (K-RAS: G12D), absolute EC50, read-out: Ab EC50
[5] = Homo sapiens, ASPC1, AsPC-1, relative EC50, read-out: Re EC50
[6] = Homo sapiens, CCRF-CEM (K-RAS: G12D), absolute EC50, read-out: Ab EC50
[7] = Homo sapiens, CCRF-CEM, relative EC50, read-out: Re EC50
[8] = Homo sapiens, Capan-1 (K-RAS: G12V), absolute EC50, read-out: Ab EC50
[9] = Homo sapiens, Capan-1, relative EC50, read-out: Re EC50
[10] = Pan2.03 (K-RAS: G12D), absolute EC50, read-out: Ab EC50
[11] = Pan2.03, relative EC50, read-out: Re EC50
[12] = Pan2.13 (K-RAS: Q61H), absolute EC50, read-out: Ab EC50
[13] = Pan2.13, relative EC50, read-out: Re EC50
[14] = Homo sapiens, SW-620, SW620 (K-RAS: G12V), absolute EC50, read-out: Ab EC50

| SMILES | Top Inhibition % (A549; A549) | EC50 (A549; [2]) | EC50 (A549; [3]) | Top Inhibition % (AsPC-1; AsPC-1) | Top Inhibition % (CCRF-CEM; CCRF-CEM) | Top Inhibition % (Capan-1; Capan-1) | EC50 (Pan2.03; [10]) | Top Inhibition % (Pan2.03; Pan2.03) | EC50 (Pan2.03; [11]) | EC50 (Pan2.13; [12]) | Top Inhibition % (Pan2.13; Pan2.13) | EC50 (Pan2.13; [13]) | Top Inhibition % (SW620; SW620) | Top Inhibition % (BxPC-3) | Top Inhibition % (Colo205) | Top Inhibition % (H1915) | Top Inhibition % (H838) | Top Inhibition % (HT29) | Top Inhibition % (RPMI8226) | Top Inhibition % (SW900) | also measured |
| --- | --- | --- | --- | --- | --- | --- | --- | --- | --- | --- | --- | --- | --- | --- | --- | --- | --- | --- | --- | --- | --- |
| CC(=O)O[C@H]1C(=O)[C@@]2(C)[C@H]([C@H](OC(=O)c3ccccc3)[C@]3(O)C[C@H](OC(=O)[C@H](O)[C@@H](NC(=O)c4ccccc4)c4ccccc4)C(C)=C1C3(C)C)[C@]1(OC(C)=O)CO[C@@H]1C[C@@H]2O [Paclitaxel] | 86.0% | 0.0026 µM | 0.0023 µM | 60.9% | 97.8% | 73.5% | 0.0033 µM | 64.7% | 0.0018 µM | 0.065 µM | 53.2% | 0.0027 µM | 92.1% | 91.93% | 97.4% | 80.6% | 96.5% | 93.8% | 98.98% | 81.0% | EC50 (AsPC-1; [4]): 0.01 µM; EC50 (AsPC-1; [5]): 0.0038 µM; EC50 (CCRF-CEM; [6]): 0.004 µM; EC50 (CCRF-CEM; [7]): 0.0039 µM; EC50 (Capan-1; [8]): 0.011 µM; EC50 (Capan-1; [9]): 0.0072 µM; EC50 (SW620; [14]): 0.012 µM; EC50 (SW620; Homo sapiens, SW-620, SW620, relative EC50, read-out: Re EC50): 0.0094 µM |
| CC(=O)OCC1=CC2C3C(C)(C)C3(OC(C)=O)CC(C)C2(O)C2C=C(C)C(=O)C2(O)C1 (centres unmarked) [Compound K101E] | 78.7% |  |  | 35.2% | 34.3% | 44.6% | > 30 µM | 36.5% | 1.92 µM | > 0.2 µM | 49.8% | 0.044 µM | 0.0% | 38.87% | 85.8% | 35.6% | 26.8% | 31.7% | 32.25% | 25.4% | EC50 (A549; A549 (K-RAS: G12S), absolute EC50, read-out: Ab EC50): 2.64 µM; EC50 (A549; A549, relative EC50, read-out: Re EC50): 1.56 µM; EC50 (AsPC-1; AsPC-1 (K-RAS: G12D), absolute EC50, read-out: Ab EC50): > 30 µM; EC50 (AsPC-1; AsPC-1, relative EC50, read-out: Re EC50): 2.78 µM; EC50 (CCRF-CEM; CCRF-CEM (K-RAS: G12D), absolute EC50, read-out: Ab EC50): > 30 µM; EC50 (CCRF-CEM; CCRF-CEM, relative EC50, read-out: Re EC50): 0.27 µM; EC50 (Capan-1; Capan-1 (K-RAS: G12V), absolute EC50, read-out: Ab EC50): > 30 µM; EC50 (Capan-1; Capan-1, relative EC50, read-out: Re EC50): 0.83 µM; EC50 (SW620; SW620 (K-RAS: G12V), absolute EC50, read-out: Ab EC50): > 30 µM; protein levels of the leukemia inhibitory factor (LIF) [1]: did not affect; number of colonies formed in soft agar (A549 cells): reduced the number of colonies formed by A549 cells in a dose-dependent manner |
| CC(=O)O[C@@]12C[C@@H](C)[C@@]3(O)[C@@H](C=C(CO)C[C@]4(O)C(=O)C(C)=C[C@@H]34)[C@@H]1C2(C)C [Compound K101A, 12-deoxyphorbol 13-acetate] | 76.0% | 0.49 µM | 0.27 µM | 32.4% | 35.9% | 37.1% | > 30 µM | 27.0% | 0.12 µM | > 30 µM | 43.4% | 0.017 µM | 0.0% | 40.11% | 83.6% | 27.7% | 10.1% | 12.8% | 32.39% | 7.1% | EC50 (AsPC-1; [4]): > 30 µM; EC50 (AsPC-1; [5]): 0.27 µM; EC50 (CCRF-CEM; [6]): > 30 µM; EC50 (CCRF-CEM; [7]): 0.051 µM; EC50 (Capan-1; [8]): > 30 µM; EC50 (Capan-1; [9]): 0.31 µM; EC50 (SW620; [14]): > 30 µM; LIF protein level ([1]; 0.5 μM): lowered; protein levels of the leukemia inhibitory factor (LIF) [1]: dose-dependent reduction; phospho-PKC (pan) level (phospho-PKC (pan); 0.5 μM): without affecting; phospho-PKC (pan) levels (phospho-PKC (pan); 48 hours, K103, K102 at 0.5 μM, K101A at […]): reduction; number of colonies formed in soft agar (A549 cells): reduced the number of colonies formed by A549 cells in a dose-dependent manner |
